Counter-ions that a name gives are not always drawn.

The target of one experiment is T1, Human ATX protein (Homo sapiens, UniProt Q13822).
T1 construct: made in house
Description: ATX biochemical assay (FRET, FS-3 substrate). Conditions: FRET assay, FS-3 2 μM, ATX 1.0 μg/mL, 30 minutes preincubation, 2 hours reaction at room temperature; read-out: IC50. The procedure, abridged:
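In-house human ATX (1.0 μg/mL final) was preincubated with compound for 30 min at room temperature in Tris buffer pH 7.4 with 1 mg/mL fatty acid free-BSA. FS-3 substrate (2 μM final) was then hydrolysed for 2 hours at room temperature, protected from light, and read as fluorescence at ex 485/em 538 nm.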
With `O=C(O)C1CC(CC(=O)N2CCc3c(C(F)(F)F)nn(Cc4ccc(Cl)cc4F)c3C2)C1` (mixture of isomers) [Example 6-8, 3-(2-(1-(4-Chloro-2-fluorobenzyl)-3-(trifluoromethyl)-4,5-dihydro-1H-pyrazolo[3,4-c]pyridin-6(7H)-yl)-2-oxoethyl)cyclobutanecarboxylic acid], the IC50 was at most 100 nM. Same read-out and setting: the figure for `O=C(CC1CCN2CCCC2C1)N1CCc2c(C(F)(F)F)nn(Cc3ccc(F)cc3)c2C1` (centres unmarked) [Example 1-34, 1-(1-(4-Fluorobenzyl)-3-(trifluoromethyl)-4,5-dihydro-1H-pyrazolo[3,4-c]pyridin-6(7H)-yl)-2-(octahydroindolizin-7-yl)ethanone TFA salt] is at most 100 nM.

Turning to `O=C(CC12CCC(C(=O)O)(CC1)C2)N1CCc2c(C(F)(F)F)nn(Cc3ccc(F)cc3)c2C1` [Example 5-53, 4-(2-(1-(4-Fluorobenzyl)-3-(trifluoromethyl)-4,5-dihydro-1H-pyrazolo[3,4-c]pyridin-6(7H)-yl)-2-oxoethyl)bicyclo[2.2.1]heptane-1-carboxylic acid], the IC50 is at most 100 nM. In the case of `O=C(N[C@H]1CC[C@@H](C(=O)O)CC1)N1CCc2c(C(F)(F)F)nn(Cc3ccc(Cl)cc3F)c2C1` [Example 5-6, cis-4-(1-(4-chloro-2-fluorobenzyl)-3-(trifluoromethyl)-4,5,6,7-tetrahydro-1H-pyrazolo[3,4-c]pyridine-6-carboxamido)cyclohexanecarboxylic acid], the IC50 is at most 100 nM. For `CCOC(=O)[C@H]1CC[C@H](CC(=O)N2CCc3c(C(F)(F)F)nn(Cc4ccc(Cl)cc4F)c3C2)CC1` [Example 2-1, trans-Ethyl 4-(2-(1-(4-chloro-2-fluorobenzyl)-3-(trifluoromethyl)-4,5-dihydro-1H-pyrazolo[3,4-c]pyridin-6(7H)-yl)-2-oxoethyl)cyclohexanecarboxylate], the IC50 was at most 100 nM. Take `NC(=O)[C@H]1CC[C@H](CC(=O)N2CCc3c(C(F)(F)F)nn(Cc4ccc(F)cc4)c3C2)CC1` [Example 20-2, trans-4-(2-(1-(4-Fluorobenzyl)-3-(trifluoromethyl)-4,5-dihydro-1H-pyrazolo[3,4-c]pyridin-6(7H)-yl)-2-oxoethyl)cyclohexanecarboxamide]: the IC50 is at most 100 nM. The same measure, in the same setting: the figure for `O=C(C[C@H]1CC[C@H](C(=O)O)CC1)N1CCc2c(C(F)(F)F)nn(CCc3ccccc3)c2C1` [Example 5-16, trans-4-(2-Oxo-2-(1-phenethyl-3-(trifluoromethyl)-4,5-dihydro-1H-pyrazolo[3,4-c]pyridin-6(7H)-yl)ethyl)cyclohexanecarboxylic acid] is 100 to 250 nM; for `CC1(C)CC(CC(=O)N2CCc3c(C(F)(F)F)nn(Cc4ccc(Cl)cc4F)c3C2)CCN1` (centres unmarked) [Example 9-6, 1-(1-(4-Chloro-2-fluorobenzyl)-3-(trifluoromethyl)-4,5-dihydro-1H-pyrazolo[3,4-c]pyridin-6(7H)-yl)-2-(2,2-dimethylpiperidin-4-yl)ethanone TFA salt] it is at most 100 nM; for `CCOC(=O)[C@H]1CC[C@@H](CC(=O)N2CCc3c(C(F)(F)F)nn(Cc4ccc(Cl)cc4F)c3C2)CC1` [Example 2-2, cis-Ethyl 4-(2-(1-(4-chloro-2-fluorobenzyl)-3-(trifluoromethyl)-4,5-dihydro-1H-pyrazolo[3,4-c]pyridin-6(7H)-yl)-2-oxoethyl)cyclohexanecarboxylate] it is at most 100 nM. On to `O=C(C[C@H]1CC[C@H](C(=O)O)CC1)N1CCc2cnn(Cc3ccc(Cl)cc3F)c2C1` [Example 7-3, trans-4-(2-(1-(4-Chloro-2-fluorobenzyl)-4,5-dihydro-1H-pyrazolo[3,4-c]pyridin-6(7H)-yl)-2-oxoethyl)cyclohexanecarboxylic acid], for which the IC50 is at most 100 nM. Still for that read-out and setting: the figure for `O=C(O)C1CC2CCC(C1)C2CC(=O)N1CCc2c(C(F)(F)F)nn(Cc3ccc(Cl)cc3F)c2C1` (mixture of isomers) [Example 6-10, 8-(2-(1-(4-Chloro-2-fluorobenzyl)-3-(trifluoromethyl)-4,5-dihydro-1H-pyrazolo[3,4-c]pyridin-6(7H)-yl)-2-oxoethyl)bicyclo[3.2.1]octane-3-carboxylic acid] is at most 100 nM. The same measure, in the same setting: as for `COC(=O)C1CCC(C(=O)N2CCc3c(C(F)(F)F)nn(Cc4ccc(F)cc4)c3C2)CC1` (centres unmarked) [Example 1-22, Methyl 4-(1-(4-fluorobenzyl)-3-(trifluoromethyl)-4,5,6,7-tetrahydro-1H-pyrazolo[3,4-c]pyridine-6-carbonyl)cyclohexanecarboxylate], the figure is over 10000 nM; as for `O=C(C[C@H]1CC[C@H](N2CC(F)(F)C2)CC1)N1CCc2c(C(F)(F)F)nn(Cc3ccc(F)cc3)c2C1` [Example 22-8, 2-(trans-4-(3,3-difluoroazetidin-1-yl)cyclohexyl)-1-(1-(4-fluorobenzyl)-3-(trifluoromethyl)-4,5-dihydro-1H-pyrazolo[3,4-c]pyridin-6(7H)-yl)ethanone TFA salt], at most 100 nM; as for `O=C(CC1CCOCC1)N1CCc2c(C(F)(F)F)nn(Cc3ccc(Cl)cc3F)c2C1` [Example 1-29, 1-(1-(4-Chloro-2-fluorobenzyl)-3-(trifluoromethyl)-4,5-dihydro-1H-pyrazolo[3,4-c]pyridin-6(7H)-yl)-2-(tetrahydro-2H-pyran-4-yl)ethanone], at most 100 nM.

As to `CN(C)c1nn(Cc2ccc(F)cc2)c2c1CCN(C(=O)C[C@H]1CC[C@H](C(=O)O)CC1)C2` [Example 5-43, trans-4-(2-(3-(Dimethylamino)-1-(4-fluorobenzyl)-4,5-dihydro-1H-pyrazolo[3,4-c]pyridin-6 (7H)-yl)-2-oxoethyl)cyclohexanecarboxylic acid], the IC50 was at most 100 nM. Still for that read-out and setting: the figure for `O=C(O)[C@H]1CC[C@@H](C(=O)N2CCc3c(C(F)(F)F)nn(Cc4ccc(F)cc4)c3C2)CC1` [Example 7-18, cis-4-(1-(4-fluorobenzyl)-3-(trifluoromethyl)-4,5,6,7-tetrahydro-1H-pyrazolo[3,4-c]pyridine-6-carbonyl)cyclohexanecarboxylic acid] is at most 100 nM; for `CCOC(=O)[C@H]1CC[C@H](CC(=O)N2CCc3c(C4CC4)nn(Cc4ccc(F)cc4)c3C2)CC1` [Example 1-39, trans-Ethyl 4-(2-(3-cyclopropyl-1-(4-fluorobenzyl)-4,5-dihydro-1H-pyrazolo[3,4-c]pyridin-6(7H)-yl)-2-oxoethyl)cyclohexanecarboxylate] it is at most 100 nM; for `CC1CCN(CC(=O)N2CCc3c(C(F)(F)F)nn(Cc4ccc(F)cc4)c3C2)CC1` [Example 12-14, 1-(1-(4-Fluorobenzyl)-3-(trifluoromethyl)-4,5-dihydro-1H-pyrazolo[3,4-c]pyridin-6(7H)-yl)-2-(4-methylpiperidin-1-yl)ethanone] it is at most 100 nM. On the same count and under the same terms, the figure for `CC(C)(C)OC(=O)N1CC(CC(=O)N2CCc3c(C(F)(F)F)nn(Cc4ccc(Cl)cc4F)c3C2)C1` [Example 8-3, tert-Butyl 3-(2-(1-(4-chloro-2-fluorobenzyl)-3-(trifluoromethyl)-4,5-dihydro-1H-pyrazolo[3,4-c]pyridin-6(7H)-yl)-2-oxoethyl)azetidine-1-carboxylate] is at most 100 nM. The same measure, in the same setting: the figure for `O=C(O)C1CCC(CC(=O)N2CCc3c(C(F)(F)F)nn(Cc4ccc(F)cc4)c3C2)C1` (mixture of isomers) [Example 6-7, 3-(2-(1-(4-Fluorobenzyl)-3-(trifluoromethyl)-4,5-dihydro-1H-pyrazolo[3,4-c]pyridin-6(7H)-yl)-2-oxoethyl)cyclopentanecarboxylic acid] is at most 100 nM; for `O=C(C[C@H]1CC[C@H](C(=O)O)CC1)N1CCc2c(C(F)(F)F)nn(Cc3ccc(Cl)cc3Cl)c2C1` [Example 7-7, trans-4-(2-(1-(2,4-Dichlorobenzyl)-3-(trifluoromethyl)-4,5-dihydro-1H-pyrazolo[3,4-c]pyridin-6(7H)-yl)-2-oxoethyl)cyclohexanecarboxylic acid] it is at most 100 nM; for `CC1CCC(Cn2nc(C(F)(F)F)c3c2CN(C(=O)C[C@H]2CC[C@H](C(=O)O)CC2)CC3)CC1` (stereo partly drawn) [Example 5-37, trans-4-(2-(1-((4-Methylcyclohexyl)methyl)-3-(trifluoromethyl)-4,5-dihydro-1H-pyrazolo[3,4-c]pyridin-6(7H)-yl)-2-oxoethyl)cyclohexanecarboxylic acid] it is at most 100 nM. `CCOC(=O)C1CCC(CC(=O)N2CCc3c(C(F)(F)F)nn(Cc4ccc(Cl)cc4Cl)c3C2)CC1` (centres unmarked) [Example 1-9, Ethyl 4-(2-(1-(2,4-dichlorobenzyl)-3-(trifluoromethyl)-4,5-dihydro-1H-pyrazolo[3,4-c]pyridin-6(7H)-yl)-2-oxoethyl)cyclohexanecarboxylate]: the concentration for half-maximal inhibition (IC50) is at most 100 nM.

With `CC(C)N1CC(CC(=O)N2CCc3c(C(F)(F)F)nn(Cc4ccc(Cl)cc4F)c3C2)C[C@H]1C(=O)O` (stereo partly drawn) [Example 10-12, (2S)-4-(2-(1-(4-Chloro-2-fluorobenzyl)-3-(trifluoromethyl)-4,5-dihydro-1H-pyrazolo[3,4-c]pyridin-6(7H)-yl)-2-oxoethyl)-1-isopropylpyrrolidine-2-carboxylic acid TFA salt], the half-inhibitory concentration (IC50) was at most 100 nM. On the same count and under the same terms, as for `O=C(O)C1CCC(CC(=O)N2CCc3c(C(F)(F)F)nn(Cc4ccc(Cl)cc4F)c3C2)C1` (mixture of isomers) [Example 6-6, 3-(2-(1-(4-Chloro-2-fluorobenzyl)-3-(trifluoromethyl)-4,5-dihydro-1H-pyrazolo[3,4-c]pyridin-6(7H)-yl)-2-oxoethyl)cyclopentanecarboxylic acid], the figure is at most 100 nM.

The same experiment, now with this note: IC50, FRET assay, FS-3 2 μM, ATX 1.0 μg/mL, 30 minutes preincubation, 2 hours reaction at room temperature.
The compound `O=C(CC1CN2CCC1CC2)N1CCc2c(C(F)(F)F)nn(Cc3ccc(F)cc3)c2C1` (centres unmarked) [Example 1-37, 1-(1-(4-Fluorobenzyl)-3-(trifluoromethyl)-4,5-dihydro-1H-pyrazolo[3,4-c]pyridin-6(7H)-yl)-2-(quinuclidin-3-yl)ethanone TFA salt] registered an IC50 of at most 100 nM.

By IC50 is commonly meant the concentration at which inhibition is half-maximal.

Values taken from US10144732B2 (BIOGEN MA INC., priority 2014, dated 2018).
